Source: ChEMBL document CHEMBL4004838, “Design and synthesis of novel phenyl -1, 4-beta-carboline-hybrid molecules as potential anticancer agents” (Eur J Med Chem, 2017)
Activity calls are given as the source filed them. The calls are words filed in the database; no cut-off is given here.

Tests used:
UO-31 = experiment: Growth inhibition of human UO31 cells incubated for 48 hrs by sulforhodamine B assay; format: functional; details: UO-31, 48 h
MDA-MB-231 = experiment: Growth inhibition of human MDA-MB-231 cells assessed as cell growth at 0.1 uM incubated for 48 hrs by sulforhodamine B assay relative to control; format: functional; details: MDA-MB-231, 48 h, read-out: Activity
OVCAR-5 = experiment: Growth inhibition of human OVCAR5 cells assessed as cell growth at 100 uM incubated for 48 hrs by sulforhodamine B assay relative to control; format: functional; details: OVCAR-5, 48 h, read-out: Activity
MOLT-4 = experiment: Growth inhibition of human MOLT4 cells incubated for 48 hrs by sulforhodamine B assay; format: functional; details: MOLT-4, 48 h
NCI/ADR-RES = experiment: Growth inhibition of human NCI-ADR-RES cells incubated for 48 hrs by sulforhodamine B assay; format: functional
Bos taurus = species: Bos taurus; experiment: Binding affinity to calf thymus DNA assessed as induction of hyperchromic shift at 20 uM sonicated for 35 to 40 mins by UV-vis spectrophotometric analysis
A498 = experiment: Growth inhibition of human A498 cells incubated for 48 hrs by sulforhodamine B assay; format: functional; details: A498, 48 h
SK-MEL-5 = experiment: Growth inhibition of human SK-MEL-5 cells incubated for 48 hrs by sulforhodamine B assay; format: functional; details: SK-MEL-5, 48 h
RXF 393 = experiment: Growth inhibition of human RXF393 cells assessed as cell growth at 0.1 uM incubated for 48 hrs by sulforhodamine B assay relative to control; format: functional; details: RXF 393, 48 h, read-out: Activity
NCI-H226 = experiment: Growth inhibition of human NCI-H226 cells assessed as cell growth at 0.1 uM incubated for 48 hrs by sulforhodamine B assay relative to control; format: functional; details: NCI-H226, 48 h, read-out: Activity
LOX IMVI [1] = experiment: Growth inhibition of human LOXIMVI cells assessed as cell growth at 100 uM incubated for 48 hrs by sulforhodamine B assay relative to control; format: functional; details: read-out: Activity
COLO 205 = experiment: Growth inhibition of human COLO205 cells assessed as cell growth at 0.1 uM incubated for 48 hrs by sulforhodamine B assay relative to control; format: functional; details: COLO 205, 48 h, read-out: Activity
ACHN = experiment: Growth inhibition of human ACHN cells incubated for 48 hrs by sulforhodamine B assay; format: functional
MDA-MB-435 [2] = experiment: Growth inhibition of human MDA-MB-435 cells assessed as cell growth at 0.1 uM incubated for 48 hrs by sulforhodamine B assay relative to control; format: functional; details: MDA-MB-435, 48 h, read-out: Activity
SK-OV-3 = experiment: Growth inhibition of human SKOV3 cells assessed as cell growth at 100 uM incubated for 48 hrs by sulforhodamine B assay relative to control; format: functional; details: SK-OV-3, 48 h, read-out: Activity
SF-295 = experiment: Growth inhibition of human SF295 cells incubated for 48 hrs by sulforhodamine B assay; format: functional; details: SF-295, 48 h
LOX IMVI [3] = experiment: Growth inhibition of human LOXIMVI cells incubated for 48 hrs by sulforhodamine B assay; format: functional
HCT-15 = experiment: Growth inhibition of human HCT15 cells assessed as cell growth at 1 uM incubated for 48 hrs by sulforhodamine B assay relative to control; format: functional; details: HCT-15, 48 h, read-out: Activity
M14 = experiment: Growth inhibition of human M14 cells assessed as cell growth at 1 uM incubated for 48 hrs by sulforhodamine B assay relative to control; format: functional; details: M14, 48 h, read-out: Activity
SR = experiment: Growth inhibition of human SR cells assessed as cell growth at 100 uM incubated for 48 hrs by sulforhodamine B assay relative to control; format: functional; details: read-out: Activity
LOX IMVI [4] = experiment: Growth inhibition of human LOXIMVI cells assessed as cell growth at 1 uM incubated for 48 hrs by sulforhodamine B assay relative to control; format: functional; details: read-out: Activity
OVCAR-3 = experiment: Growth inhibition of human OVCAR3 cells assessed as cell growth at 0.01 uM incubated for 48 hrs by sulforhodamine B assay relative to control; format: functional; details: OVCAR-3, 48 h, read-out: Activity
RPMI-8226 = experiment: Growth inhibition of human RPMI8226 cells incubated for 48 hrs by sulforhodamine B assay; format: functional; details: RPMI-8226, 48 h
786-0 = experiment: Growth inhibition of human 786-0 cells incubated for 48 hrs by sulforhodamine B assay; format: functional; details: 786-0, 48 h
HCC 2998 = experiment: Growth inhibition of human HCC2998 cells assessed as cell growth at 0.01 uM incubated for 48 hrs by sulforhodamine B assay relative to control; format: functional; details: HCC 2998, 48 h, read-out: Activity
SF-268 = experiment: Growth inhibition of human SF268 cells assessed as cell growth at 1 uM incubated for 48 hrs by sulforhodamine B assay relative to control; format: functional; details: SF-268, 48 h, read-out: Activity
MDA-MB-435 [5] = experiment: Growth inhibition of human MDA-MB-435 cells assessed as cell growth at 0.01 uM incubated for 48 hrs by sulforhodamine B assay relative to control; format: functional; details: MDA-MB-435, 48 h, read-out: Activity
TK-10 = experiment: Growth inhibition of human TK10 cells assessed as cell growth at 0.1 uM incubated for 48 hrs by sulforhodamine B assay relative to control; format: functional; details: TK-10, 48 h, read-out: Activity
[6] = read-out: LC50 (the source's name)
[7] = read-out: pLC50 (the source's name) (converted)

## c1ccc2[nH]c(-c3ccc(-c4nccc5c4[nH]c4ccccc45)cc3)nc2c1
UO-31; read-out: GI50
  GI50: 1.69 µM
UO-31; [6]
  CC50: 6.32 µM
UO-31; read-out: TGI
  TGI: 3.27 µM
UO-31; read-out: pGI50 (converted)
  GI50: 1.7 µM
UO-31; [7]
  CC50: 6.31 µM
UO-31; read-out: pTGI (converted)
  TGI: 3.24 µM
MDA-MB-231
  growth at 0.1 µM: 94%
OVCAR-5
  growth at 100 µM: 62%
MOLT-4; read-out: GI50
  GI50: 2.32 µM
MOLT-4; [6]
  CC50: 7.51 µM
MOLT-4; read-out: TGI
  TGI: 6.11 µM
MOLT-4; read-out: pGI50 (converted)
  GI50: 2.29 µM
MOLT-4; [7]
  CC50: 75.9 µM
MOLT-4; read-out: pTGI (converted)
  TGI: 6.17 µM
NCI/ADR-RES; read-out: GI50
  GI50: 3.5 µM
NCI/ADR-RES; [6]
  CC50: > 1 µM
NCI/ADR-RES; read-out: pGI50 (converted)
  GI50: 3.47 µM
NCI/ADR-RES; read-out: pLC50 (converted)
  CC50: > 100 µM
NCI/ADR-RES; read-out: pTGI (converted)
  TGI: 15.1 µM
Bos taurus
  Activity: Active
A498; read-out: GI50
  GI50: 1.14 µM
A498; [6]
  CC50: 5.68 µM
A498; read-out: pGI50 (converted)
  GI50: 11.5 µM
A498; [7]
  CC50: 56.2 µM
A498; read-out: pTGI (converted)
  TGI: 25.7 µM
SK-MEL-5; [6]
  CC50: 4.42 µM
SK-MEL-5; read-out: pGI50 (converted)
  GI50: 3.72 µM
SK-MEL-5; [7]
  CC50: 44.7 µM
SK-MEL-5; read-out: pTGI (converted)
  TGI: 14.5 µM
RXF 393
  growth at 0.1 µM: 108%
NCI-H226
  growth at 0.1 µM: 104%
LOX IMVI [1]
  growth at 100 µM: 49%
COLO 205
  growth at 0.1 µM: 97%
ACHN; read-out: GI50
  GI50: 2.05 µM
ACHN; [6]
  CC50: 8.46 µM
ACHN; read-out: TGI
  TGI: 4.17 µM
ACHN; read-out: pGI50 (converted)
  GI50: 2.04 µM
ACHN; [7]
  CC50: 8.51 µM
ACHN; read-out: pTGI (converted)
  TGI: 4.17 µM
MDA-MB-435 [2]
  growth at 0.1 µM: 93%
SK-OV-3
  growth at 100 µM: 86%
SF-295; read-out: GI50
  GI50: 1.92 µM
SF-295; read-out: LC50
  LC50: 8.34 µM
SF-295; read-out: TGI
  TGI: 4 µM
SF-295; read-out: pGI50 (converted)
  GI50: 1.91 µM
SF-295; read-out: pLC50 (converted)
  LC50: 8.32 µM
SF-295; read-out: pTGI (converted)
  TGI: 3.98 µM
LOX IMVI [3]; read-out: GI50
  GI50: 1.67 µM
LOX IMVI [3]; read-out: TGI
  TGI: 3.82 µM
LOX IMVI [3]; read-out: pGI50 (converted)
  GI50: 1.66 µM
LOX IMVI [3]; read-out: pTGI (converted)
  TGI: 3.8 µM
HCT-15
  growth at 1 µM: 93%
M14
  growth at 1 µM: 92%
SR
  growth at 100 µM: 34%
LOX IMVI [4]
  growth at 1 µM: 81%
OVCAR-3
  growth at 0.01 µM: 101%
RPMI-8226; read-out: GI50
  GI50: 2.48 µM
RPMI-8226; [6]
  CC50: > 1 µM
RPMI-8226; read-out: TGI
  TGI: 5.61 µM
RPMI-8226; read-out: pGI50 (converted)
  GI50: 2.45 µM
RPMI-8226; [7]
  CC50: > 100 µM
RPMI-8226; read-out: pTGI (converted)
  TGI: 5.62 µM
786-0; read-out: GI50
  GI50: 2.24 µM
786-0; [6]
  CC50: 3.83 µM
786-0; read-out: TGI
  TGI: 6.3 µM
786-0; read-out: pGI50 (converted)
  GI50: 2.24 µM
786-0; [7]
  CC50: 38 µM
786-0; read-out: pTGI (converted)
  TGI: 6.31 µM
HCC 2998
  growth at 0.01 µM: 96%
SF-268
  growth at 1 µM: 93%
MDA-MB-435 [5]
  growth at 0.01 µM: 93%
TK-10
  growth at 0.1 µM: 94%
